Measured values from patent EP4603105A1, “PHARMACEUTICAL COMPOSITION CONTAINING CYCLIC COMPOUND HAVING SELECTIVE KRAS INHIBITORY EFFECT AGAINST HRAS AND NRAS” (CHUGAI SEIYAKU KABUSHIKI KAISHA, priority 2022, dated 2024).
Where two headings read alike, the source gives them in different places. *1 amine or outer side, *2 acyl side, *3 side chain or, on linkers, in order; H or OH if unused. Where a SMILES comes first, the peptide text is derived from it. Bridges are numbered along the chain shown (N, C = ends). [ ]: non-standard residue; d: D form. The star is where a group is joined. hPhe(3,5-F2-4-CF3) = N[C@@H](CCc1cc(F)c(C(F)(F)F)c(F)c1)C(=O)O; hPhe(3-Cl-4-CF3) = N[C@@H](CCc1ccc(C(F)(F)F)c(Cl)c1)C(=O)O; NPrPhe(4-CF3) = CCCN[C@@H](Cc1ccc(C(F)(F)F)cc1)C(=O)O; X16 = O=C([C@@H](N[*:1])C1CC(F)(F)C1)[*:2]; NMeGly(cPent) = CN[C@H](C(=O)O)C1CCCC1; Pro(4,4-F2) = O=C(O)[C@@H]1CC(F)(F)CN1; Ac4c(3,3-F2) = NC1(C(=O)O)CC(F)(F)C1; NMeD = CN[C@@H](CC(=O)O)C(=O)O; NMeL = CN[C@@H](CC(C)C)C(=O)O; NMeAbu = CC[C@H](NC)C(=O)O; Morpholide = C1CN(*)CCO1; NAllylGly = C=CCNCC(=O)O; Ac5c = NC1(C(=O)O)CCCC1; Aze = O=C(O)[C@@H]1CCN1; Ac4c = NC1(C(=O)O)CCC1; Sar = CNCC(=O)O

How the values were obtained:
[1] = biological target: GDP-bound NRAS wild-type protein (Homo sapiens, UniProt P01111); test: Binding to NRAS by surface plasmon resonance (SPR), KD and KD ratio to KRAS
Sequence of GDP-bound NRAS wild-type protein (P01111 whole entry): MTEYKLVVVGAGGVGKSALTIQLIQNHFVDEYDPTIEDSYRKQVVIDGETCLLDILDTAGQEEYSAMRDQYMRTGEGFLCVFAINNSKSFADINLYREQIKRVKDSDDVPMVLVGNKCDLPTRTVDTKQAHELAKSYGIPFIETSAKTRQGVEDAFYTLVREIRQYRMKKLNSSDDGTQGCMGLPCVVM
Summary of the method: (§1)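 GDP-bound biotin-Avi RAS captured at ~100–300 RU, 30°C, pH 7.4 HBS containing 10 µM GDP, 10 mM MgCl2, 1 mM DTT, 0.01% Tween 20 and 4% DMSO. KD by 1:1 fitting.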

[2] = biological target: HRAS wild-type protein (Homo sapiens, UniProt P01112); test: Binding to HRAS by surface plasmon resonance (SPR), KD and KD ratio to KRAS
Sequence of HRAS wild-type protein (P01112 whole entry): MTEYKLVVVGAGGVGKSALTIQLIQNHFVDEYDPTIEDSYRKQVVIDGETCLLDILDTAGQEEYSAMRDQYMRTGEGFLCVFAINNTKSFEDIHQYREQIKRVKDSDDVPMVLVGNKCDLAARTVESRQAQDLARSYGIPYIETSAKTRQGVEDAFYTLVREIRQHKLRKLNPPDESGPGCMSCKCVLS
Summary of the method: as §1

[3] = test system: human lung cancer strain NCI-H441; assay type: cell-based
Summary of the method: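 Readout: […] after the ATP-based reagent. Compound: serial dilutions in dimethyl sulfoxide.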

[4] = ratio of KD for GDP-bound NRAS wild-type protein to KD for KRAS
[5] = ratio of KD for HRAS wild-type protein to KD for KRAS
[6] = ratio of the KD value with respect to GDP-bound NRAS wild-type protein to the KD value with respect to KRAS
[7] = ratio of the KD value with respect to HRAS wild-type protein to the KD value with respect to KRAS

SMILES | NRAS /KRAS [1, 4] | HRAS /KRAS [2, 5] | IC50 ([3]; NCI-H441 cells, 4 days, CellTiter-Glo, read-out: NCl-H441 IC50) | NRAS /KRAS [1, 6] | HRAS /KRAS [2, 7] | IC50 [3] | NRAS /KRAS ([1]; ratio of KD value for GDP-bound NRAS wild-type protein to KD value for KRAS (SPR)) | HRAS /KRAS ([2]; ratio of KD value for HRAS wild-type protein to KD value for KRAS (SPR))
CCC[C@H]1C(=O)N[C@@H]([C@@H](C)CC)C(=O)N(C2CC2)CC(=O)N(C)[C@H]2C/C=C\CCN(C2=O)[C@@H](Cc2ccc(C)cc2)C(=O)N(C)CC(=O)N[C@@H](CCc2ccc(C3CC3)c(C)c2)C(=O)N2C[C@H](OCC)C[C@H]2C(=O)NC2(CC(C)(C)C2)C(=O)N(C)[C@@H](C2CCCC2)C(=O)N(C)[C@H](C(=O)N(C)C)CC(=O)N1C [PP2886] | A (a compound having 10 or more and less than 20 is denoted as A) | A (a compound having 10 or more and less than 20 is denoted as A) | 112 nM |  |  |  |  | 
CC[C@H](C)[C@@H]1NC(=O)[C@H](CC(C)C)N(C)C(=O)C[C@@H](C(=O)N2CCOCC2)N(C)C(=O)[C@H](C2CCCC2)N(C)C(=O)C2(CCCC2)NC(=O)[C@@H]2CCCN2C(=O)[C@H](CCc2ccc(C(F)(F)F)c(Cl)c2)NC(=O)CN(C)C(=O)[C@H](Cc2ccc(F)cc2)N2CCCCC[C@@H](C2=O)N(C)C(=O)CN(C)C1=O [PP0612] |  |  |  | B (a compound having 3 or more and less than 10 is denoted as B) | B (a compound having 3 or more and less than 10 is denoted as B) | 43.3 nM |  | 
CCCN1C(=O)[C@@H]2CCN2C(=O)CN(C)C(=O)[C@H]([C@@H](C)CC)NC(=O)[C@H](CC(C)C)N(C)C(=O)C[C@@H](C(=O)N2CCOCC2)N(C)C(=O)[C@H](C2CCCC2)N(C)C(=O)C2(CCCC2)NC(=O)[C@@H]2CCCN2C(=O)[C@H](CCc2ccc(C(F)(F)F)c(Cl)c2)NC(=O)CN(C)C(=O)[C@@H]1Cc1ccc(C(F)(F)F)cc1 [PP0156] ([NMeL]I[Sar][Aze][NPrPhe(4-CF3)][Sar][hPhe(3-Cl-4-CF3)]P[Ac5c][NMeGly(cPent)][NMeD]-Morpholide; lactam N-11) | C (A compound having a KD ratio of 0.1 or more and less than 3 is denoted as C) | B (a compound having 3 or more and less than 10 is denoted as B) |  |  |  | 8.1 nM |  | 
CC[C@H](C)[C@@H]1NC(=O)[C@H](CC(C)C)N(C)C(=O)C[C@@H](C(=O)N(C)C)N(C)C(=O)[C@H](C2CCCC2)N(C)C(=O)C2(CCCC2)NC(=O)[C@@H]2CCCN2C(=O)[C@H](CCc2ccc(C(F)(F)F)c(Cl)c2)NC(=O)CN(C)C(=O)[C@H](Cc2ccc(C)cc2)N2CC/C=C(/C)C[C@@H](C2=O)N(C)C(=O)CN(C)C1=O [PP0616] |  |  |  | B (a compound having 3 or more and less than 10 is denoted as B) | B (a compound having 3 or more and less than 10 is denoted as B) | 73.8 nM |  | 
CCCN1C(=O)CN(C)C(=O)CN(C)C(=O)[C@H]([C@@H](C)CC)NC(=O)[C@H](CC(C)C)N(C)C(=O)C[C@@H](C(=O)N2CCOCC2)N(C)C(=O)[C@H](C2CCCC2)N(C)C(=O)C2(CCC2)NC(=O)[C@H](CC)N(C)C(=O)[C@H](CCc2ccc(C(F)(F)F)c(Cl)c2)NC(=O)CN(C)C(=O)[C@@H]1Cc1ccc(C(F)(F)F)cc1 [PP1918] ([NMeL]I[Sar][Sar][NPrPhe(4-CF3)][Sar][hPhe(3-Cl-4-CF3)][NMeAbu][Ac4c][NMeGly(cPent)][NMeD]-Morpholide; lactam N-11) |  |  |  | B (a compound having 3 or more and less than 10 is denoted as B) | C (A compound having a KD ratio of 0.1 or more and less than 3 is denoted as C) | 32.8 nM |  | 
CC[C@H](C)[C@@H]1NC(=O)[C@H](CC)N(C)C(=O)C[C@@H](C(=O)N(C)C)N(C)C(=O)[C@H](C2CCCC2)N(C)C(=O)C2(CCC2)NC(=O)[C@@H]2CCN2C(=O)[C@H](CCc2cc(F)c(C(F)(F)F)c(F)c2)NC(=O)CN(C)C(=O)[C@H](Cc2ccc(C(F)(F)F)cc2)N2CCCC[C@@H](C2=O)N(C)C(=O)CN(C)C1=O [PP0657] |  |  |  | B (a compound having 3 or more and less than 10 is denoted as B) | B (a compound having 3 or more and less than 10 is denoted as B) | 32.9 nM |  | 
CCCN1C(=O)CN(C)C(=O)CN(C)C(=O)[C@H](C2CC(F)(F)C2)NC(=O)[C@H](CC(C)C)N(C)C(=O)C[C@@H](C(=O)N(C)C)N(C)C(=O)[C@H](C2CCCC2)N(C)C(=O)C2(CCCC2)NC(=O)[C@@H]2CCCN2C(=O)[C@H](CCc2cc(F)c(C(F)(F)F)c(F)c2)NC(=O)CN(C)C(=O)[C@@H]1Cc1ccc(C(F)(F)F)cc1 [PP0748] ([NMeL][X16][Sar][Sar][NPrPhe(4-CF3)][Sar][hPhe(3,5-F2-4-CF3)]P[Ac5c][NMeGly(cPent)][NMeD]-NMe2; lactam N-11) |  |  |  | B (a compound having 3 or more and less than 10 is denoted as B) | B (a compound having 3 or more and less than 10 is denoted as B) | 10.7 nM |  | 
CCCN1C(=O)CN(C)C(=O)[C@@H]2CCN2C(=O)[C@H]([C@@H](C)CC)NC(=O)[C@H](CC(C)C)N(C)C(=O)C[C@@H](C(=O)N2CCOCC2)N(C)C(=O)[C@H](C2CCCC2)N(C)C(=O)C2(CCCC2)NC(=O)[C@@H]2CC(F)(F)CN2C(=O)[C@H](CCc2ccc(C(F)(F)F)c(Cl)c2)NC(=O)CN(C)C(=O)[C@@H]1Cc1ccc(C(F)(F)F)cc1 [PP0403] ([NMeL]I[Aze][Sar][NPrPhe(4-CF3)][Sar][hPhe(3-Cl-4-CF3)][Pro(4,4-F2)][Ac5c][NMeGly(cPent)][NMeD]-Morpholide; lactam N-11) |  |  |  | B (a compound having 3 or more and less than 10 is denoted as B) | B (a compound having 3 or more and less than 10 is denoted as B) | 19.4 nM |  | 
CCO[C@@H]1C[C@H]2C(=O)NC3(CCC3)C(=O)N(C)[C@@H](C3CCCC3)C(=O)N(CC)[C@H](C(=O)N(C)C)CC(=O)N(C)[C@@H](CC)C(=O)N[C@@H]([C@@H](C)CC)C(=O)N(C)CC(=O)N(C)[C@H]3CCCCCN(C3=O)[C@@H](Cc3ccc(C(F)(F)F)cc3)C(=O)N(C)CC(=O)N[C@@H](CCc3cc(F)c(C(F)(F)F)c(F)c3)C(=O)N2C1 [PP0633] |  |  |  | B (a compound having 3 or more and less than 10 is denoted as B) | B (a compound having 3 or more and less than 10 is denoted as B) | 116 nM |  | 
CCCN1C(=O)[C@@H]2CCN2C(=O)CN(C)C(=O)[C@H]([C@@H](C)CC)NC(=O)[C@H](CC(C)C)N(C)C(=O)C[C@@H](C(=O)N2CCOCC2)N(C)C(=O)[C@H](C2CCCC2)N(C)C(=O)C2(CCCC2)NC(=O)[C@@H]2CCCN2C(=O)[C@H](CCc2cc(F)c(C(F)(F)F)c(F)c2)NC(=O)CN(C)C(=O)[C@@H]1Cc1ccc(C(F)(F)F)cc1 [PP0789] ([NMeL]I[Sar][Aze][NPrPhe(4-CF3)][Sar][hPhe(3,5-F2-4-CF3)]P[Ac5c][NMeGly(cPent)][NMeD]-Morpholide; lactam N-11) | C (A compound having a KD ratio of 0.1 or more and less than 3 is denoted as C) | B (a compound having 3 or more and less than 10 is denoted as B) |  |  |  | 12.5 nM |  | 
CCO[C@@H]1C[C@H]2C(=O)NC3(CC(C)(C)C3)C(=O)N(C)[C@@H](C3CCCC3)C(=O)N(C)[C@H](C(=O)N(C)CC)CC(=O)N(C)[C@@H]([C@@H](C)OC)C(=O)N[C@@H]([C@@H](C)CC)C(=O)N(C3CC3)CC(=O)N(C)[C@H]3C/C=C\CCN(C3=O)[C@@H](Cc3ccc(C)cc3)C(=O)N(C)CC(=O)N[C@@H](CCc3cc(F)c(C(F)(F)F)c(F)c3)C(=O)N2C1 [PP3184] | A (a compound having 10 or more and less than 20 is denoted as A) | A (a compound having 10 or more and less than 20 is denoted as A) |  |  |  | 30.4 nM |  | 
C=CCN1CC(=O)N(C)CC(=O)N(CCC)[C@@H](Cc2ccc(C(F)(F)F)cc2)C(=O)N(C)CC(=O)N[C@@H](CCc2ccc(C(F)(F)F)c(Cl)c2)C(=O)N2CCC[C@H]2C(=O)NC2(CCCC2)C(=O)N(C)[C@@H](C2CCCC2)C(=O)N(C)[C@H](C(=O)N2CCOCC2)CC(=O)N(C)[C@@H](CC(C)C)C(=O)N[C@@H]([C@@H](C)CC)C1=O [PP0749] ([NMeL]I[NAllylGly][Sar][NPrPhe(4-CF3)][Sar][hPhe(3-Cl-4-CF3)]P[Ac5c][NMeGly(cPent)][NMeD]-Morpholide; lactam N-11) |  |  |  | B (a compound having 3 or more and less than 10 is denoted as B) | C (A compound having a KD ratio of 0.1 or more and less than 3 is denoted as C) | 19.8 nM |  | 
CCCN(C)C(=O)[C@@H]1CC(=O)N(C)[C@@H](C)C(=O)N[C@@H]([C@@H](C)CC)C(=O)N(C)CC(=O)N(C)[C@H]2C/C=C\CCN(C2=O)[C@@H](Cc2ccc(C(F)(F)F)cc2)C(=O)N(C)CC(=O)N[C@@H](CCc2cc(F)c(C(F)(F)F)c(F)c2)C(=O)N2C[C@H](OCC)C[C@H]2C(=O)NC2(CC(F)(F)C2)C(=O)N(C)[C@@H](C2CCCC2)C(=O)N1C [PP1731] |  |  |  |  |  | 7.4 nM | A (a compound having 10 or more and less than 20 is denoted as A) | A (a compound having 10 or more and less than 20 is denoted as A)
CCCN1C(=O)CN(C)C(=O)CN(C)C(=O)[C@H]([C@@H](C)CC)NC(=O)[C@H](CC(C)C)N(C)C(=O)C[C@@H](C(=O)N(C)C)N(C)C(=O)[C@H](C2CCCC2)N(C)C(=O)C2(CC(F)(F)C2)NC(=O)[C@@H]2CCCN2C(=O)[C@H](CCc2cc(F)c(C(F)(F)F)c(F)c2)NC(=O)CN(C)C(=O)[C@@H]1Cc1ccc(C(F)(F)F)cc1 [PP0745] ([NMeL]I[Sar][Sar][NPrPhe(4-CF3)][Sar][hPhe(3,5-F2-4-CF3)]P[Ac4c(3,3-F2)][NMeGly(cPent)][NMeD]-NMe2; lactam N-11) |  |  |  | B (a compound having 3 or more and less than 10 is denoted as B) | C (A compound having a KD ratio of 0.1 or more and less than 3 is denoted as C) | 3.9 nM |  | 
